Our source for the TGI and GI50 values is PubChem BioAssay (NCI).

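In this assay, cells in 96-well plates receive the compound at five concentrations for 48 hours. Endpoints are linearly interpolated between the surrounding concentrations. GI50 = concentration required for 50% inhibition of growth. TGI: concentration producing complete growth inhibition.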

One test has as its system KM20L2 colon. Description: NCI tumour cell line growth inhibition, 48 h.
The test system of a further test is MCF7 breast. Put plainly: NCI tumour cell line growth inhibition, 48 h.

The compound `CCOC(=O)c1ncoc1[C@H]1COC(C)(C)O1` displayed a TGI in the test with KM20L2 colon of more than 100 µM. With `O=C(c1ccccc1)c1nn(-c2ccc(Cl)cc2)c2nc3nc(-c4ccccc4)cc(=O)n3nc12`, in the test with MCF7 breast, the GI50 was 40.9 µM and the TGI was more than 100 µM.
